Assay results from patent publication US20220257777A1, “HSP90-BINDING CONJUGATES AND COMBINATION THERAPIES THEREOF” (TVA (ABC), LLC, priority 2019, published 2022).
Where two headings read alike, the source gives them in different places. Marks after values point to notes of the source that are not given here.

What was measured:
[1] = Phase 1/2a study, plasma pharmacokinetics of Conjugate 1 and SN-38; type: in vivo, human
Excerpt: (§1) In a Phase 1/2a study of Conjugate 1, patients received weekly Conjugate 1 treatment for 3 of 4 weeks in a 28-day cycle. The patients have histologically or cytologically confirmed advanced solid tumors. Their tumor types included anus, breast, cholangiocarcinoma, colon, Ewing sarcoma, liver, lung, neuroendocrine (unknown primary), ovary, pancreas, salivary gland, and sarcoma. They have received one or more prior lines of anticancer therapy. The patients received flat dosings or dosings based on body surface area (BSA). The doses included 30 mg, 60 mg, 120 mg, 240 mg, 360 mg, 175 mg/m^2, and 200 mg/m^2. […] BSA-based dosing will be used for future studies.
To study pharmacokinetics (PK) profile, multiple plasma samples were collected to measure Conjugate 1 and SN-38 concentrations. […] Elimination half-life was ˜10 hours across all dose ranges. Free SN-38 levels were generally low. AUC is <2% of the conjugate (Conjugate 1) AUC.

[2] = Phase 1/2a study, maximum tolerated dose and adverse events; type: in vivo, human
Excerpt: as §1
AEs are well-managed with dose modification.

[3] = tested on: advanced solid tumors; experiment: Phase 1/2a study, tumor response; type: in vivo, human
Excerpt: as §1
120-360 mg flat dose and 175 mg/m2 BSA dose were associated with stable disease that was maintained for ≥12 weeks.

[4] = Levels of Conjugate 1 and SN-38 in patient tumor biopsy and plasma at 24 h; type: in vivo, human
Description: A pancreatic cancer patient received Conjugate 1 at a dose of 150 mg/m^2 and underwent a tumor biopsy to determine Conjugate 1 and SN-38 levels in tumor and plasma. Samples were taken 24 h after the second dose of 150 mg/m^2 Conjugate 1 from a liver metastasis.
Conjugate 1 and SN-38 levels in tumor are much higher than the levels in plasma.

[5] = Tumor exposure of Conjugate 1 and SN-38 in H1975 mouse xenograft model at 24 h; type: in vivo; conditions: for concentration at 24 h: mouse, in vivo; for SN-38 in tumor at 24 h: H1975 model
[6] = tested on: H1975 (NSCLC) mouse xenograft; experiment: Efficacy in H1975 (NSCLC) mouse xenograft model; type: in vivo
[7] = cited from earlier work; for Ratio of tumor level/plasma level: after Onivyde treatment at 72 h; for Amount in Tumor: patient biopsies after Onivyde treatment at 72 h (13 patients); for Amount in Plasma: patients after Onivyde treatment at 72 h (13 patients)
[8] = patients dosed with Conjugate 1, plasma

## CCc1c2c(nc3ccc(OC(=O)N4CCC(CCn5ccc6cc(-n7c(O)nnc7-c7cc(C(C)C)c(O)cc7O)ccc65)CC4)cc13)-c1cc3c(c(=O)n1C2)COC(=O)[C@]3(O)CC [Conjugate 1, (S)-4,11-diethyl-4-hydroxy-3,14-dioxo-3,4,12,14-tetrahydro-1H-pyrano[3′,4′:6,7]indolizino[1,2-b]quinolin-9-yl 4-(2-(5-(3-(2,4-dihydroxy-5-isopropylphenyl)-5-hydroxy-4H-1,2,4-triazol-4-yl)-1H-indol-1-yl)ethyl)piperidine-1-carboxylate]
[1]; human, in vivo, Elimination half-life
  half-life: ~10 h
[1]; patients, 30 mg to 200 mg/m^2
  Dose proportionality of PK: non-linear PK at lower doses, but greater proportionality was observed at higher doses
[1]; patients, PK analyses
  Linker stability in circulation: stable in circulation
[2]; patients with advanced solid tumors, weekly for 3 of 4 weeks in a 28-day cycle
  Maximum tolerated dose (MTD), monotherapy: 175 mg/m^2
[2]; patients, Phase 1
  Most common AEs: nausea, fatigue, diarrhea, vomiting and alopecia
  Overall safety / adverse event profile: safe and has an expected adverse (AE) event profile
[3]; 120-360 mg flat dose and 175 mg/m2 BSA dose
  Time stable disease was maintained: ≥ 12 weeks
[3]; of the 17 patients who received Conjugate 1 treatment
  Patients achieving partial response (PR; reduction of tumor size by 30% or more): one
[4]; human, in vivo, 24 h
  SN-38 tumor level relative to SN-38 tumor level of patients who received Onivyde: about 3.5 fold
[5]; 50 mg/kg
  concentration at 24 h: 163 nM
[5]; 100 mg/kg
  concentration at 24 h: 149 nM
[5]; 150 mg/kg
  concentration at 24 h: 4990 nM
[6]; weekly dose of 150 mg/kg
  Efficacy in the xenograft model: tumor regression
[6]; weekly doses of 72 mg/kg and 100 mg/kg
  Efficacy in the xenograft model: significant efficacy

## CCc1c2c(nc3ccc(OC(=O)N4CCC(N5CCCCC5)CC4)cc13)-c1cc3c(c(=O)n1C2)COC(=O)[C@]3(O)CC [Irinotecan]
[7]
  Ratio of tumor level/plasma level: About 0.5
  Amount in Tumor: 4043 nM
  Amount in Plasma: 7.921 µM
[7]; listed as irinotecan
  Ratio of tumor level/plasma level: about ½

## CCc1c2c(nc3ccc(O)cc13)-c1cc3c(c(=O)n1C2)COC(=O)[C@]3(O)CC [SN-38, reference compound]
[1]; [8]
  Free SN-38 AUC as share of the conjugate (Conjugate 1) AUC: < 2%
  Free SN-38 levels / systemic exposure to free SN-38: generally low
[1]; patients dosed with Conjugate 1, plasma, listed as SN-28
  Free SN-38 levels / systemic exposure to free SN-38: low
[4]; at 24 h, average of 5 patients dosed at 175 mg/m^2 Conjugate 1
  Amount in Plasma: 25.5* nM
[4]; at 24 h, tumor at 150 mg/m^2, plasma at 175 mg/m^2 Conjugate 1
  Ratio of tumor level/plasma level: About 3.4
[4]; pancreatic cancer patient, liver metastasis biopsy, 24 h after the second dose of 150 mg/m^2 Conjugate 1
  Amount in Tumor: 86.6 nM
[5]; Conjugate 1 50 mg/kg
  SN-38 in tumor at 24 h: 98 nM
[5]; Conjugate 1 100 mg/kg
  SN-38 in tumor at 24 h: 18.4 nM
[5]; Conjugate 1 150 mg/kg
  SN-38 in tumor at 24 h: 221 nM
[7]
  Ratio of tumor level/plasma level: About 4.2
  Amount in Tumor: 24.5 nM
  Amount in Plasma: 0.0059 µM
